Tested on: BT-549
Assay: normalised response (% of control), CellTiter-Glo; higher = more viable cells (100 = DMSO, 0 = benzethonium chloride kill control)
Settings: incubation time: 72 h
Summary of the method: (§1)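 Breast cancer cell lines, seeded at 20 µl suspension per well, were incubated for 72 h in 384-well plates containing compound at 5 concentrations. These concentrations rose in 10-fold steps over a 10,000-fold range set for each compound. CellTox Green fluorescence (485/520 nm) was read, then CellTiter-Glo luminescence after 10 min at room temperature, and each plate was normalised to 0.1 % DMSO (100) and a positive kill control (0). Values are normalised signals, each at one concentration.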

SMILES | normalised response
C[C@]12CC[C@@H]3c4ccc(O)cc4C[C@@H](CCCCCCCCC[S+]([O-])CCCC(F)(F)C(F)(F)F)[C@H]3[C@@H]1CC[C@@H]2O (stereo not given in full) [Fulvestrant] (1 nM) | 98.4%
CCC1(c2ccc(N)cc2)CCC(=O)NC1=O (stereo not given) [Aminoglutethimide] (1 nM) | 106%
COc1cc2nccc(Oc3ccc(NC(=O)C4(C(=O)Nc5ccc(F)cc5)CC4)cc3)c2cc1OC [Cabozantinib] (0.1 nM) | 102%
C[C@@H](Oc1cc(-c2cnn(C3CCNCC3)c2)cnc1N)c1c(Cl)ccc(F)c1Cl [Crizotinib] (1 nM) | 91.8%

Tested on: CAL-51
Assay: as above
Settings: incubation time: 72 h
Summary of the method: as §1

SMILES | normalised response
CN(N=O)C(=O)N[C@@H](C=O)[C@@H](O)[C@H](O)[C@H](O)CO [Streptozocin] (1 nM) | 80.8%
C=C(c1ccc(C(=O)O)cc1)c1cc2c(cc1C)C(C)(C)CCC2(C)C [Bexarotene] (1 nM) | 105%
C[C@]12CC[C@@H]3c4ccc(O)cc4C[C@@H](CCCCCCCCC[S+]([O-])CCCC(F)(F)C(F)(F)F)[C@H]3[C@@H]1CC[C@@H]2O (stereo not given in full) [Fulvestrant] (1 nM) | 119%
CCC1(c2ccc(N)cc2)CCC(=O)NC1=O (stereo not given) [Aminoglutethimide] (1 nM) | 112%
COc1cc2nccc(Oc3ccc(NC(=O)C4(C(=O)Nc5ccc(F)cc5)CC4)cc3)c2cc1OC [Cabozantinib] (0.1 nM) | 87.8%
C[C@@H](Oc1cc(-c2cnn(C3CCNCC3)c2)cnc1N)c1c(Cl)ccc(F)c1Cl [Crizotinib] (1 nM) | 117%

Tested on: CAL-85-1
Assay: as above
Settings: incubation time: 72 h
Summary of the method: as §1

SMILES | normalised response
CN(N=O)C(=O)N[C@@H](C=O)[C@@H](O)[C@H](O)[C@H](O)CO [Streptozocin] (1 nM) | 94.2%
C=C(c1ccc(C(=O)O)cc1)c1cc2c(cc1C)C(C)(C)CCC2(C)C [Bexarotene] (1 nM) | 99.7%
C[C@]12CC[C@@H]3c4ccc(O)cc4C[C@@H](CCCCCCCCC[S+]([O-])CCCC(F)(F)C(F)(F)F)[C@H]3[C@@H]1CC[C@@H]2O (stereo not given in full) [Fulvestrant] (1 nM) | 101%
CCC1(c2ccc(N)cc2)CCC(=O)NC1=O (stereo not given) [Aminoglutethimide] (1 nM) | 109%
COc1cc2nccc(Oc3ccc(NC(=O)C4(C(=O)Nc5ccc(F)cc5)CC4)cc3)c2cc1OC [Cabozantinib] (0.1 nM) | 97.1%
C[C@@H](Oc1cc(-c2cnn(C3CCNCC3)c2)cnc1N)c1c(Cl)ccc(F)c1Cl [Crizotinib] (1 nM) | 96.6%

Tested on: Hs578T
Assay: as above
Settings: incubation time: 72 h
Summary of the method: as §1

SMILES | normalised response
CN(N=O)C(=O)N[C@@H](C=O)[C@@H](O)[C@H](O)[C@H](O)CO [Streptozocin] (1 nM) | 106%
C=C(c1ccc(C(=O)O)cc1)c1cc2c(cc1C)C(C)(C)CCC2(C)C [Bexarotene] (1 nM) | 93.2%
C[C@]12CC[C@@H]3c4ccc(O)cc4C[C@@H](CCCCCCCCC[S+]([O-])CCCC(F)(F)C(F)(F)F)[C@H]3[C@@H]1CC[C@@H]2O (stereo not given in full) [Fulvestrant] (1 nM) | 111%
CCC1(c2ccc(N)cc2)CCC(=O)NC1=O (stereo not given) [Aminoglutethimide] (1 nM) | 96.9%
COc1cc2nccc(Oc3ccc(NC(=O)C4(C(=O)Nc5ccc(F)cc5)CC4)cc3)c2cc1OC [Cabozantinib] (0.1 nM) | 100%
C[C@@H](Oc1cc(-c2cnn(C3CCNCC3)c2)cnc1N)c1c(Cl)ccc(F)c1Cl [Crizotinib] (1 nM) | 101%

Tested on: MDA-MB-453
Assay: as above
Settings: incubation time: 72 h
Summary of the method: as §1

SMILES | normalised response
CN(N=O)C(=O)N[C@@H](C=O)[C@@H](O)[C@H](O)[C@H](O)CO [Streptozocin] (1 nM) | 92.1%
C=C(c1ccc(C(=O)O)cc1)c1cc2c(cc1C)C(C)(C)CCC2(C)C [Bexarotene] (1 nM) | 111%
C[C@]12CC[C@@H]3c4ccc(O)cc4C[C@@H](CCCCCCCCC[S+]([O-])CCCC(F)(F)C(F)(F)F)[C@H]3[C@@H]1CC[C@@H]2O (stereo not given in full) [Fulvestrant] (1 nM) | 112%
CCC1(c2ccc(N)cc2)CCC(=O)NC1=O (stereo not given) [Aminoglutethimide] (1 nM) | 98.6%
COc1cc2nccc(Oc3ccc(NC(=O)C4(C(=O)Nc5ccc(F)cc5)CC4)cc3)c2cc1OC [Cabozantinib] (0.1 nM) | 116%
C[C@@H](Oc1cc(-c2cnn(C3CCNCC3)c2)cnc1N)c1c(Cl)ccc(F)c1Cl [Crizotinib] (1 nM) | 100%

Tested on: HDQ-P1
Assay: as above
Settings: incubation time: 72 h
Summary of the method: as §1

SMILES | normalised response
CN(N=O)C(=O)N[C@@H](C=O)[C@@H](O)[C@H](O)[C@H](O)CO [Streptozocin] (1 nM) | 104%
C=C(c1ccc(C(=O)O)cc1)c1cc2c(cc1C)C(C)(C)CCC2(C)C [Bexarotene] (1 nM) | 102%
C[C@]12CC[C@@H]3c4ccc(O)cc4C[C@@H](CCCCCCCCC[S+]([O-])CCCC(F)(F)C(F)(F)F)[C@H]3[C@@H]1CC[C@@H]2O (stereo not given in full) [Fulvestrant] (1 nM) | 99.3%
CCC1(c2ccc(N)cc2)CCC(=O)NC1=O (stereo not given) [Aminoglutethimide] (1 nM) | 98.4%
COc1cc2nccc(Oc3ccc(NC(=O)C4(C(=O)Nc5ccc(F)cc5)CC4)cc3)c2cc1OC [Cabozantinib] (0.1 nM) | 95.2%
C[C@@H](Oc1cc(-c2cnn(C3CCNCC3)c2)cnc1N)c1c(Cl)ccc(F)c1Cl [Crizotinib] (1 nM) | 96.4%

Tested on: MCF-10A
Assay: as above
Settings: incubation time: 72 h
Summary of the method: as §1

SMILES | normalised response
CN(N=O)C(=O)N[C@@H](C=O)[C@@H](O)[C@H](O)[C@H](O)CO [Streptozocin] (1 nM) | 113%
C=C(c1ccc(C(=O)O)cc1)c1cc2c(cc1C)C(C)(C)CCC2(C)C [Bexarotene] (1 nM) | 99.8%
C[C@]12CC[C@@H]3c4ccc(O)cc4C[C@@H](CCCCCCCCC[S+]([O-])CCCC(F)(F)C(F)(F)F)[C@H]3[C@@H]1CC[C@@H]2O (stereo not given in full) [Fulvestrant] (1 nM) | 103%
CCC1(c2ccc(N)cc2)CCC(=O)NC1=O (stereo not given) [Aminoglutethimide] (1 nM) | 97.8%
COc1cc2nccc(Oc3ccc(NC(=O)C4(C(=O)Nc5ccc(F)cc5)CC4)cc3)c2cc1OC [Cabozantinib] (0.1 nM) | 92.2%
C[C@@H](Oc1cc(-c2cnn(C3CCNCC3)c2)cnc1N)c1c(Cl)ccc(F)c1Cl [Crizotinib] (1 nM) | 94.9%

Tested on: BT-474
Assay: as above
Settings: incubation time: 72 h
Summary of the method: as §1

SMILES | normalised response
CN(N=O)C(=O)N[C@@H](C=O)[C@@H](O)[C@H](O)[C@H](O)CO [Streptozocin] (1 nM) | 98.8%
C=C(c1ccc(C(=O)O)cc1)c1cc2c(cc1C)C(C)(C)CCC2(C)C [Bexarotene] (1 nM) | 103%
C[C@]12CC[C@@H]3c4ccc(O)cc4C[C@@H](CCCCCCCCC[S+]([O-])CCCC(F)(F)C(F)(F)F)[C@H]3[C@@H]1CC[C@@H]2O (stereo not given in full) [Fulvestrant] (1 nM) | 103%
CCC1(c2ccc(N)cc2)CCC(=O)NC1=O (stereo not given) [Aminoglutethimide] (1 nM) | 103%
COc1cc2nccc(Oc3ccc(NC(=O)C4(C(=O)Nc5ccc(F)cc5)CC4)cc3)c2cc1OC [Cabozantinib] (0.1 nM) | 101%
C[C@@H](Oc1cc(-c2cnn(C3CCNCC3)c2)cnc1N)c1c(Cl)ccc(F)c1Cl [Crizotinib] (1 nM) | 101%

Tested on: HCC1143
Assay: as above
Settings: incubation time: 72 h
Summary of the method: as §1

SMILES | normalised response
CN(N=O)C(=O)N[C@@H](C=O)[C@@H](O)[C@H](O)[C@H](O)CO [Streptozocin] (1 nM) | 105%
C=C(c1ccc(C(=O)O)cc1)c1cc2c(cc1C)C(C)(C)CCC2(C)C [Bexarotene] (1 nM) | 99.7%
C[C@]12CC[C@@H]3c4ccc(O)cc4C[C@@H](CCCCCCCCC[S+]([O-])CCCC(F)(F)C(F)(F)F)[C@H]3[C@@H]1CC[C@@H]2O (stereo not given in full) [Fulvestrant] (1 nM) | 105%
CCC1(c2ccc(N)cc2)CCC(=O)NC1=O (stereo not given) [Aminoglutethimide] (1 nM) | 97%
COc1cc2nccc(Oc3ccc(NC(=O)C4(C(=O)Nc5ccc(F)cc5)CC4)cc3)c2cc1OC [Cabozantinib] (0.1 nM) | 96.2%
C[C@@H](Oc1cc(-c2cnn(C3CCNCC3)c2)cnc1N)c1c(Cl)ccc(F)c1Cl [Crizotinib] (1 nM) | 102%

Tested on: MDA-MB-436
Assay: as above
Settings: incubation time: 72 h
Summary of the method: as §1

SMILES | normalised response
CN(N=O)C(=O)N[C@@H](C=O)[C@@H](O)[C@H](O)[C@H](O)CO [Streptozocin] (1 nM) | 104%
C=C(c1ccc(C(=O)O)cc1)c1cc2c(cc1C)C(C)(C)CCC2(C)C [Bexarotene] (1 nM) | 89.5%
C[C@]12CC[C@@H]3c4ccc(O)cc4C[C@@H](CCCCCCCCC[S+]([O-])CCCC(F)(F)C(F)(F)F)[C@H]3[C@@H]1CC[C@@H]2O (stereo not given in full) [Fulvestrant] (1 nM) | 105%

Reference: the supplement of paper PMC4862054
